The text below walks through data of patent US9744175B2, “Compositions of combinations of non-covalent DNA binding agents and anti-cancer and/or anti-inflammatory agents and their use in disease treatment” (INDUS PHARMACEUTICALS, INC., priority 2012, dated 2017).

By Cmax is commonly meant the highest concentration seen after dosing. By Tmax is commonly meant the time from dosing to the highest level. In general, IC50 refers to the concentration that inhibits the measured activity by half.

Where “and” joins values, the source holds several entries; their conditions need not be identical. Equal values may be shown once.

The subject of data set [1] is HCT116 (mlh−). Put plainly: siRNA inhibition of p53 and REV functions, alamar blue growth inhibition. The class given is cell-based, human. The note with it: for Fold improvement in IC50, p53: p53 siRNA vs control; for Fold improvement in IC50, rev: rev siRNA vs control; for IC50: no siRNA knock out, read-out: IC50, Control. The procedure:
(§1) siRNA specific for different genes is purchased from Dharmacon (Thermo. Fisher Scientific Dharmacon Products, Lafayette, Colo. 80026) and the protocol recommended by the supplier is utilized. Confluent cells are trypsinized and 5000 cells are seeded in a well in the presence or absence of siRNA in 100 μL medium. The cells are incubated with siRNA for two days. A non-covalent DNA binding agent of the invention is added in a 10 μL volume and incubated for another 48 hours. After treatment with the agent, the medium is replaced with 1% alamar blue containing medium to measure fluorescence after two hours.
as §1, with “from Dharmacon (Thermo Fisher Scientific” for “from Dharmacon (Thermo. Fisher Scientific”, “two hours. […] The results are presented in FIGS. 14-18 (SEQ ID NO:3-12, respectively) and Table 7.” for “two hours.”

The nature of data set [2]: Intravenous and oral pharmacokinetics in male Sprague-Dawley rats. The format is in vivo, rat. The note with it: for AUC0-inf / AUC0-t / Cmax / Tmax: rat blood; for AUC0-inf / AUC0-t / Cmax: mean ± SD; for Tmax: median; for T1/2: harmonic mean; for F (oral absolute bioavailability): oral 20 mg/kg vs IV 3 mg/kg, dose-normalised AUC0-inf; for clearance as share of normal liver blood flow in rat (55 mL/min/kg) / mean volume of distribution as multiple of total body water: intravenous administration. How it is done: Intravenous and oral pharmacokinetic studies are conducted on the novel non-covalent DNA binding agents, NSC 718813, NSC 723734 and NSC 726260, in male Sprague-Dawley rats. The studies are conducted in a parallel design with two groups of four male rats each for intravenous and oral administration of the test agents. The protocols for the studies are approved by the appropriate institutional animal care and use committee.
Groups of rats designated to receive oral doses of the novel non-covalent DNA binding agents of the invention molecules receive an oral dose of 20 mg/kg in a formulation vehicle comprised of N,N-dimethylacetamide (DMA), polyethylene glycol 400 (PEG400), ethanol, Cremophor EL and water (10:10:10:5:65 v/v). The dose volume for the oral doses of the test compounds is 8 mL/kg. Groups of rats are randomized to receive intravenous doses of agents. These rats receive a single intravenous bolus dose of 3 mg/kg of the test compound in a vehicle comprised of DMA:PEG400:ethanol:Cremophor EL:0.9% sodium chloride (saline) (10:10:10:5:65 v/v). The dose volume for intravenous doses of test agents is 1 mL/kg.
Predose blood samples are obtained from all rats from both, oral and intravenous dosing groups. For the intravenously dosed rats, blood samples (100 uL each) are obtained at 0.083, 0.25. 0.5, 1.0, 2.0, 4.0, 8.0, 12.0 and 24.0 hours post-dose. For the oral dose groups, the sampling times are identical to the intravenous dose group, except that the 0.083 hour sample is not collected. Following the collection of the blood samples, an equal volume of water is added to the blood sample to hemolyze the blood sample and the samples are stored frozen at −70° C. until bioanalysis.
Plasma samples are analyzed for the concentration of the test non-covalent DNA binding agents of the invention using an HPLC method with mass spectrometric (MS/MS) detection, following a liquid:liquid extraction of the plasma samples using a dichloromethane:ethyl acetate (20:80) mixture. To a 100 μL aliquot of sample, 50 μL of an internal standard (NSC 723732) is added. After mixing the internal standard wen, 2.5 mL of the extracting solvent (dichloromethane:ethyl acetate 20:80 v/v) is added. The mixture is vortexed for one minute and the samples are centrifuged at 3000 rpm for 3 minutes. Approximately 2 mL of the supernatant is taken from the centrifuged tubes and the sample is dried under a nitrogen stream at 50° C. The residue is reconstituted with 100 μL of the mobile phase and 20 μL is injected into the HPLC system for analysis. The mobile phase is comprised of milli-Q water:acetonitrile:formic acid (20:80:0.05) adjusted to pH 7.5 with ammonia.
The analysis of the test agent concentration is conducted by an HPLC method using a Shimadzu Prominence HPLC system and the eluent is analyzed using an API 4000 LC-MS/MS system (Applied Biosystems). The samples are analyzed on a HyPurity Advance, 50×4.6 mm, 5 u, Thermoelectron column. An injection volume of 20 μL is used for the analytical sample and the flow rate of the mobile phase is 0.6 mL/minute. Mass spectrometric analysis is conducted on the eluent using the API 4000 LC-MS/MS system and the mass parameters are analyzed for MRM transitions using NSC 723732 as the internal standard, in a positive ionization mode at a temperature of 400 C.

Data set [3] has as its system H1299 (p53−). Put plainly: siRNA inhibition of MMR functions, alamar blue growth inhibition. The format is cell-based, human. The note with it: for Fold improvement in IC50, mlh1: mlh1 siRNA vs control; for Fold improvement in IC50, msh2: msh2 siRNA vs control; for IC50: no siRNA knock out, read-out: IC50, Control. How it is done:
as §1
as §1, with “from Dharmacon (Thermo Fisher Scientific” for “from Dharmacon (Thermo. Fisher Scientific”, “two hours. […] The results are presented in FIGS. 14-18 (SEQ ID NO:3-12, respectively) and Table 7.” for “two hours.”

For data set [4], the system named is homologous recombination repair deficiencies. The data set is described as follows: Synthetic lethality with homologous recombination repair deficiencies (FIG. 8). The format is cell-based. The note with it: FIG. 8 legend.
In data set [5] the test system is yeast rad57 mutation. The data set is described as follows: Alamar Blue cell survival assay in yeast cells. The format is cell-based. The procedure:
The cells are diluted 100-fold in yeast complete medium. 100 μL of diluted cells are seeded in 96 well plates with or without a non-covalent DNA binding compound and incubated for 24 hours at 30° C. The following day, an equal volume of yeast complete medium containing 1% alamar blue is added and incubated at 30° C. for two hours. Fluorescence intensity is measured in a fluorescent reader to calculate the inhibition effect of non-covalent DNA binding agents in mutant and wild type yeast cells.
Yeast cells that carry mutations in different genes involved in homologous recombination (rad 50, rad51, rad52, and rad57) and nucleotide excision/double strand repair (rad1) are grown to stationary culture overnight.

Setting [6] is: IV-bolus 3 mg/kg, rat, listed as NSC723734, 3 mg/kg.

As to `COc1cc2c(cc1OCCCCCOc1cc3c(cc1OC)C(=O)N1CCC[C@H]1C(=O)N3)N=C[C@@H]1CCCN1C2=O` [NSC 718813], in data set [1], the “Fold improvement in IC50, p53” value was 12.5 fold and the “Fold improvement in IC50, rev” value is 7.1 fold. In addition, in data set [2] (IV-bolus 3 mg/kg, rat), the Vdss is 1.5 ± 0.4 L/kg and the T1/2 is reported as 2.2 ± 0.4 h. In data set [2] (IV-bolus 3 mg/kg), the AUC0-inf was 2424 ± 309 ng·h/mL, the AUC0-t turned out to be 2376 ± 304 ng·h/mL, the maximum concentration (Cmax) is 5723 ± 1005 ng/mL and the Tmax is given as 0.08 h. For the same molecule, in data set [2] (IV-bolus 3 mg/kg, rat, 3 mg/kg), the CLblood entry is listed as “approximately 20 mL/min/kg”. The same molecule returned a CLblood in data set [2] (IV-bolus 3 mg/kg, rat, listed as NSC 718813/1, 3 mg/kg) of 20.0 ± 2.9 mL/min/kg. Also, in data set [2] (intravenous 3 mg/kg), the “time with rat blood concentrations well above in vitro GI50 and/or TGI” value is listed as “at least 4 hours”. Moreover, the “F (oral absolute bioavailability)” value in data set [2] (rat) stood at 2%. In data set [2] (oral dose 20 mg/kg), the “time with measurable blood levels post-dose” value is “up to 8 hours”. Further, in data set [2] (oral solution 20 mg/kg), the AUC0-inf amounted to 345 ± 142 ng·h/mL, the AUC0-t was 303 ± 129 ng·h/mL, the Cmax is given as 112 ± 32 ng/mL and the Tmax amounted to 0.5 h. In addition, in data set [2] (oral solution 20 mg/kg, rat), the T1/2 is recorded as 1.8 ± 0.6 h. In addition, the “metabolic stability compared with naturally occurring antitumor antibiotic analogs” value in data set [2] (rat, inferred from systemic clearance) is listed as “better metabolic stability”. Moreover, in data set [3], the “Fold improvement in IC50, mlh1” value turned out to be 1.3 fold; the “Fold improvement in IC50, msh2” value is on record as 1.9 fold; the IC50 worked out at 600 nM.

For `COc1cc2c(cc1OCCCCN1CCN(CCCCOc3cc4c(cc3OC)C(=O)N3CCC[C@H]3C=N4)CC1)N=C[C@@H]1CCCN1C2=O` [NSC 723734], in data set [1], the IC50 was determined as 300 nM; the “Fold improvement in IC50, p53” value is on record as 2.2 fold; the “Fold improvement in IC50, rev” value was found to be 2.2 fold. In data set [2] (IV-bolus 3 mg/kg), the AUC0-inf worked out at 4405 ng·h/mL, the AUC0-t turned out to be 4246 ± 311 ng·h/mL, the maximum concentration (Cmax) is recorded as 4053 ng/mL and the Tmax is reported as 0.083 h. Further, in data set [2] (IV-bolus 3 mg/kg, rat), the T1/2 worked out at 6.3 h. Moreover, in data set [2] (IV-bolus 3 mg/kg, rat, 3 mg/kg), the CLblood was found to be 11.4 ± 0.5 mL/min/kg and the Vdss came out at 3.2 ± 0.3 L/kg. Besides, in data set [2] (setting [6]), the CLblood worked out at 11 mL/min/kg and the Vdss worked out at 3 L/kg. Further, in data set [2] (rat), the “clearance as share of normal liver blood flow in rat (55 mL/min/kg)” value is on record as “about 20%”, the “mean volume of distribution as multiple of total body water” value is “about 4 times” and the “F (oral absolute bioavailability)” value is reported as 0.7%. For the same molecule, the “F (oral absolute bioavailability)” value in data set [2] (rat, listed as NSC723734) is “approximately 1%”. In data set [2] (oral solution 20 mg/kg), the AUC0-inf amounted to 216 ng·h/mL, the AUC0-t came out at 196 ± 93 ng·h/mL, the highest concentration (Cmax) stood at 90.5 ± 56 ng/mL and the time of peak concentration (Tmax) was found to be 0.25 h. Further, the Cmax in data set [2] (oral solution 20 mg/kg, listed as NSC723734) was 91 ng/mL. Also, the T1/2 in data set [2] (oral solution 20 mg/kg, rat) is reported as 2.3 ± 0.7 h. Further, the “synthetic lethality with homologous recombination repair deficiencies” value in data set [4] is on record as “synthetic lethal”. Besides, in data set [3], the “Fold improvement in IC50, mlh1” value came to 2.0 fold; the “Fold improvement in IC50, msh2” value turned out to be 2.6 fold; the 50% inhibitory concentration (IC50) amounted to 900 nM.

As for `COc1cc2c(cc1OCCCC(=O)Nc1ccc3ccc4cccc5ccc1c3c45)N=C[C@@H]1CCCN1C2=O` [NSC 726260], in data set [1], the IC50 stood at 750 nM; the “Fold improvement in IC50, p53” value is listed as 3.8 fold; the “Fold improvement in IC50, rev” value was 5.0 fold. In data set [2] (IV-bolus 3 mg/kg, rat), this molecule gave a Vdss of 1.9 L/kg and a T1/2 of 4.8 h. In data set [2] (IV-bolus 3 mg/kg), the AUC0-inf was determined as 5112 ng·h/mL, the AUC0-t came out at 5058 ± 874 ng·h/mL, the Cmax worked out at 5587 ng/mL and the time to peak (Tmax) amounted to 0.083 h. In data set [2] (IV-bolus 3 mg/kg, rat, 3 mg/kg), the CLblood was 10.4 mL/min/kg and 10.4 ± 2.0 mL/min/kg. Also, in data set [2] (rat), the “clearance as share of normal liver blood flow in rat (55 mL/min/kg)” value was “about 20%” and the “mean volume of distribution as multiple of total body water” value is reported as “about 3 times”. Moreover, in data set [2] (oral solution 20 mg/kg), the AUC0-inf amounted to 2536 ng·h/mL, the AUC0-t was 2474 ± 844 ng·h/mL, the Cmax is on record as 438 ng/mL and the Tmax is reported as 4.0 h. For the same molecule, the T1/2 in data set [2] (oral solution 20 mg/kg, rat) worked out at 4.6 ± 1.7 h. Further, the IC50 in data set [5] came out at 300 nM. Also, the “synthetic lethality with homologous recombination repair deficiencies” value in data set [4] was “synthetic lethal”.
